This assay deals with survivin. The experiment in a line: Human Apoptosis Proteome Profiler array, survivin. Type of assay: cell-based. The following applies: HCT-116, 1 h exposure, 2 × IC50. From the text: To explore in detail the molecular mechanism of apoptosis induction by compounds 3b and 3c, we employed Human Apoptosis Proteome Profiler arrays that allow quantification of apoptosis-related biomarkers (Figure 3C). […] Collectively, it can be concluded that silyl derivative 3b promotes cell death in HCT 116 cells by the alteration of expression levels of survivin and activation of caspase-3.
The Human Apoptosis Array Kit (R&D Systems, Abingdon, UK) was used to determine the levels of expression of apoptosis-related proteins. 2.5 × 10^5 HCT 116 wt cells were seeded on 100 mm dishes (Nunc, ThermoFisher, Waltham, MA, USA) and allowed to attach for 24 h. Then the medium was replaced with tested compounds at a concentration corresponding 2 × IC50 value and the cells were incubated in 37 °C. After 60 min the cells were lysed and the lysates were clarified by centrifugation for 30 min at 14,000× g. The total protein concentration was measured using the Protein Quantification Kit-Rapid (Sigma-Aldrich, Taufkirchen, Germany) according to the manufacturer’s instruction. The next steps followed instructions from the manufacturer of the Human Apoptosis Array Kit. The membranes were then scanned in the G:Box trans illuminator (Syngene, Cambridge, UK) and the protein expression levels were quantified by densitometric analysis using ImageJ software.

Structures are written as SMILES.

For the molecule `CC(C)[Si](OC1OC(=O)C(Br)=C1Br)(C(C)C)C(C)C` (stereo not shown) [Compound 3b, 3,4-Dibromo-5-(triisopropylsilyloxy)-furan-2(5H)-one], the survivin expression result was “down-regulation of survivin”.

The values above are taken from PMC8620685, “Effect of Selected Silyl Groups on the Anticancer Activity of 3,4-Dibromo-5-Hydroxy-Furan-2(5H)-One Derivatives” (Pharmaceuticals, 2021).
